We go through 1 molecule from US20080119548A1, “Control Of Feeding Behavior By Changing Neuronal Energy Balance” (priority 2004, published 2008).

Molecules are shown by their SMILES.

The test system of assay [1] is pAMPKα. Kind of assay: Immunohistochemistry of pAMPKα in the arcuate nucleus. The conditions noted are these: C75-treated (24 hr) mice. Type of assay: in vivo. As for the experimental part:
Free-floating sections were blocked in PBS containing 5% goat serum, 0.1% BSA, 0.05% Triton-X100, 1 mM NaF for 1 hr at room temperature and incubated with anti-phospho-AMPKα (α1 and α2) antibody (1:100) or anti-phospho-CREB antibody (1:500, Cell Signaling) in PBS containing 1% goat serum, 0.1% BSA, 0.05% Triton-X100, 1 mM NaF overnight at 4° C. Signal was visualized by Vectastain ABC kit (Vector).
Images of in situ hybridization and immunohistochemistry were visualized using an Axiocam HRc digital camera (Carl Zeiss) and images were acquired using Improvision Openlab software, and quantified by NIH Image program (Macro).

Assay [2] can be described thus: Changes in bodyweight 24 hr after i.c.v. injection. Type of assay: in vivo, mice. The note with it: C75 10 μg i.c.v. From the text:
(d) Changes in bodyweight 24 hr after i.c.v. injection of C75, AICAR or compound C (n=4-10). Mice were implanted with permanent stainless steel cannulae into the lateral ventricle of the brain 0.6 mm caudal to Bregma, 1.2 mm lateral to the midline, and sunk to a depth of 2.2 mm below the surface of the skull. Implanted mice were housed in individual cages and utilized for i.c.v. and i.p. injections as indicated. C75 dissolved in RPMI1640 (Gibco-BRL), AICAR (Toronto Research Chemicals Inc) or compound […], Inc.) in saline was injected i.c.v., such that desired dose could be administered in a volume of 2.5 μl, while control groups received vehicle only. Injections were done immediately preceding dark onset and food intake measurements were taken at 1 hr (0-1 hr interval), 3 hr (1-3 hr interval), and 24 hr (3-24 hr interval) after dark onset. […]. treatment groups were i.p. injected with 5 mg/kg bodyweight C75 dissolved in […] of glucose-free RPMI 1 hr before the dark onset, followed by 3 μg/2.5 μl saline i.c.v. AICAR immediately preceding the dark onset. Control groups received 200 μl of glucose free RPMI 1 hr before lights off and 2.5 μl of saline. Administration of i.p. compound C (10 or 30 mg/kg bodyweight) or C75 (10 mg/kg bodyweight) was followed by food intake measurement at the same times indicated.

Consider `C=C1C(=O)OC(CCCCCCCC)C1C(=O)O` (centres unmarked) [C75], for which the “pAMPKa-immunoreactivity in the arcuate nucleus, % of control” value in assay [1] is 12 % of control. The bodyweight result in assay [2] is listed as “reduction in body weight”.
